Assay results: patent US20250019350A1, “SYNTHESIS OF THE PROSTATE SPECIFIC MEMBRANE ANTIGEN (PSMA) RADIOLABELED INHIBITOR [18F]DCFPYL” (Progenics Pharmaceuticals, Inc, priority 2023, published 2025)

Assay: Radiolysis / stability of [18F]DCFPyL over time by HPLC with radiodetection (RCP, free 18F, radioactive impurities)
Assay type: physicochemical
Conditions: for RT 4.8 radioactive impurity: MPA = 0.25% of main peak; for RCP: T = 10 hour; for 18F-DCFPyL / Free 18F: forced radiolysis in ethanol, 364.5 mCi/mL; for RT 5.0 min / RT 5.9 min / RT 12.0 min / RT 12.2 min: radioactive impurity
Procedure: Those of ordinary skill in the art will be aware of techniques and systems for determining the radiochemical purity of a composition. In some cases, the radiochemical purity is determined using an HPLC associated with a radio-detector. Generally, the radiochemical purity is determined under ambient conditions (e.g., ambient temperature, ambient humidity, ambient light, etc.), such as in samples stored under such conditions.
Stability was assessed using reverse phase HPLC on a C18 column with a phosphate buffer/acetonitrile gradient mobile phase, and the elution profile was monitored using both UV and radiochemical detectors. Samples were analyzed either by direct injection onto the HPLC, dilution and injection or including the addition of tetraethylammonium fluoride (TEAF) into the sample before injection.
Known amounts of free ^18F either alone or spiked with TEAF were injected onto the analytic column and the eluent from the column collected over the course of a chromatogram and assaying the radioactivity using a Capintec. […] Adding TEAF into the analytic samples was incorporated into subsequent studies examining potential radiolysis of [^18F]DCFPyL to overcome some of the limitations of free ^18F quantification.
Analytical HPLC method was used. The method employs UV detection at 264 nm for chemical impurities, and an Eckert & Ziegler model B-FC-1000 gamma detector for radiochemical assays.

[1] = T = 6 hr, 5 mg/mL ascorbic acid pH 5.8, 20% ethanol, 99.0 mCi/mL at EOS
[2] = T = 6 hr, 50 mg/mL ascorbic acid pH 5.8, 20% ethanol, 139.7 mCi/mL at EOS
[3] = T = 6 hr, 100% ethanol, 325 mCi/mL at EOS
[4] = T = 7 hr, 100% ethanol, 325 mCi/mL at EOS
[5] = T = 8 hr, 100% ethanol, 325 mCi/mL at EOS
[6] = T = 9 hr, 100% ethanol, 325 mCi/mL at EOS
[7] = T = 10 hr, +TEAF added to sample before HPLC, 100% ethanol, 325 mCi/mL at EOS
[8] = T = 10 hr, 1 mg/mL ascorbic acid pH 5.8, 20% ethanol, 107.0 mCi/mL at EOS
[9] = T = 10 hr, 5 mg/mL ascorbic acid pH 5.8, 20% ethanol, 99.0 mCi/mL at EOS
[10] = T = 10 hr, 50 mg/mL ascorbic acid pH 5.8, 20% ethanol, 139.7 mCi/mL at EOS
[11] = T = 10 h, TEAF added (44 mg/mL) to sharpen the 18F peak
[12] = 147 mCi/mL in 0.9% Sodium Chloride, USP, T = 0 h
[13] = 147 mCi/mL in 0.9% Sodium Chloride, USP, T = 0.5 h
[14] = 147 mCi/mL in 0.9% Sodium Chloride, USP, T = 1.0 h
[15] = 147 mCi/mL in 0.9% Sodium Chloride, USP, T = 1.5 h
[16] = 147 mCi/mL in 0.9% Sodium Chloride, USP, T = 2.0 h
[17] = 147 mCi/mL in 0.9% Sodium Chloride, USP, T = 2.5 h
[18] = 147 mCi/mL in 0.9% Sodium Chloride, USP, T = 3.0 h
[19] = 147 mCi/mL in 0.9% Sodium Chloride, USP, T = 3.5 h
[20] = 147 mCi/mL in 0.9% Sodium Chloride, USP, T = 4.0 h
[21] = 256 mCi/mL in ethanol, T = 1.0 h
[22] = 256 mCi/mL in ethanol, T = 1.5 h
[23] = 256 mCi/mL in ethanol, T = 2.0 h
[24] = 256 mCi/mL in ethanol, T = 2.5 h
[25] = 256 mCi/mL in ethanol, T = 3.0 h
[26] = 256 mCi/mL in ethanol, T = 3.5 h
[27] = 256 mCi/mL in ethanol, T = 4.0 h

O=C(O)CC[C@H](NC(=O)N[C@@H](CCCCNC(=O)c1ccc([18F])nc1)C(=O)O)C(=O)O [Lot 18F-DCFPyL, 2-(3-{1-carboxy-5-[(6-[18F]fluoro-pyridine-3-carbonyl)-amino]-pentyl}ureido)-pentanedioic acid]
Free F-18 (T = 6 hr, 1 mg/mL ascorbic acid pH 5.8, 20% ethanol, 107.0 mCi/mL at EOS): 1.57% | Free F-18 (T = 6 hr, 1 mg/mL sodium ascorbate, 20% ethanol, 111.5 mCi/mL at EOS): 2.81% | 18F-DCFPyL (% RCP) [1]: 99.09% | Free F-18 [1]: 0.91% | Free F-18 (T = 6 hr, 5 mg/mL sodium ascorbate, 20% ethanol, 114.6 mCi/mL at EOS): 1.45% | 18F-DCFPyL (% RCP) [2]: 99.64% | Free F-18 [2]: 0.36% | RT 4.8 radioactive impurity [2]: <MPA | 18F-DCFPyL (RCP) [3]: 96.73% | Free F-18 [3]: 4.27% | 18F-DCFPyL (RCP) [4]: 96.42% | Free F-18 [4]: 4.58% | 18F-DCFPyL (RCP) [5]: 95.76% | Free F-18 [5]: 4.24% | 18F-DCFPyL (RCP) [6]: 95.31% | Free F-18 [6]: 4.69% | RCP (120 mCi/mL, ascorbic acid 5.6 mg/mL pH 6.0): 96.9% | RCP (127 mCi/mL, ascorbic acid 2.8 mg/mL pH 6.0): 96.1% | RCP (166 mCi/mL, ascorbic acid 5.6 mg/mL pH 6.0): 95.5% | 18F-DCFPyL (RCP) [7]: 92.7% | Free F-18 [7]: 7.35% | Free F-18 (T = 10 hr, +TEAF added to sample before HPLC, 100% ethanol, 325 mCi/mL at EOS, listed as 18F DCFPyL): 7.4% | Free F-18 (T = 10 hr, no TEAF, 100% ethanol, 325 mCi/mL at EOS): 4.55% | Free F-18 (T = 10 hr, no TEAF, 100% ethanol, 325 mCi/mL at EOS, listed as 18F DCFPyL): 4.6% | Free F-18 (T = 10 hr, 0.5 mg/mL ascorbic acid pH 5.8, 20% ethanol, 105.8 mCi/mL at EOS): 1.42% | 18F-DCFPyL (% RCP) [8]: 98.36% | Free F-18 [8]: 1.64% | Free F-18 (T = 10 hr, 1 mg/mL sodium ascorbate, 20% ethanol, 111.5 mCi/mL at EOS): 2.74% | 18F-DCFPyL (% RCP) [9]: 99.05% | Free F-18 [9]: 0.95% | Free F-18 (T = 10 hr, 5 mg/mL sodium ascorbate, 20% ethanol, 114.6 mCi/mL at EOS): 1.51% | 18F-DCFPyL (% RCP) [10]: 99.34% | Free F-18 [10]: 0.30% | RT 4.8 radioactive impurity [10]: 0.36% | 18F-DCFPyL (RCP) (T = 10 hr, 100% ethanol, 325 mCi/mL at EOS): 95.45% | 18F-DCFPyL (RCP) (T = 10 hr, 100% ethanol, 325 mCi/mL at EOS, listed as 18F DCFPyL): 95.5% | 18F-DCFPyL (T = 0 h): 98.37 area % | Free 18F (T = 0 h): 1.63 area % | 18F-DCFPyL (T = 1 h): 96.66 area % | Free 18F (T = 1 h): 3.34 area % | 18F-DCFPyL (T = 2 h): 96.38 area % | Free 18F (T = 2 h): 3.62 area % | 18F-DCFPyL (T = 3 h): 95.71 area % | Free 18F (T = 3 h): 4.29 area % | 18F-DCFPyL (T = 4 h): 95.60 area % | Free 18F (T = 4 h): 4.40 area % | 18F-DCFPyL (T = 5 h): 95.58 area % | Free 18F (T = 5 h): 4.42 area % | 18F-DCFPyL (T = 6 h): 95.73 area % | Free 18F (T = 6 h): 4.27 area % | 18F-DCFPyL (T = 7 h): 95.42 area % | Free 18F (T = 7 h): 4.58 area % | 18F-DCFPyL (T = 8 h): 95.76 area % | Free 18F (T = 8 h): 4.24 area % | 18F-DCFPyL (T = 9 h): 95.31 area % | Free 18F (T = 9 h): 4.69 area % | 18F-DCFPyL (T = 10 h): 95.45 area % | Free 18F (T = 10 h): 4.55 area % | 18F-DCFPyL [11]: 92.65 area % | Free 18F [11]: 7.35 area % | two impurities eluting before the 18F-DCFPyL peak, upper end of range (<LLQ to ...) (over 4 hours, 110 mCi/mL lot, 50 mg/mL pH 5.8 ascorbic acid, 24% (w/w) ethanol): ≤ 0.37% | impurity eluting before the 18F-DCFPyL peak, upper end of range (<LLQ to ...) (over 4 hours, 256 mCi/mL lot, 100 mg/mL pH 2.0 ascorbic acid in collection vial): ≤ 0.35% | RT 5.0 min (110 mCi/mL in 50 mg/mL pH 5.8 ascorbic acid, T = 0 h): 0.27 area % | RT 5.0 min (110 mCi/mL in 50 mg/mL pH 5.8 ascorbic acid, T = 0.5 h): 0.28 area % | RT 5.0 min (110 mCi/mL in 50 mg/mL pH 5.8 ascorbic acid, T = 1.0 h): 0.26 area % | RT 5.0 min (110 mCi/mL in 50 mg/mL pH 5.8 ascorbic acid, T = 1.5 h): 0.34 area % | RT 5.0 min (110 mCi/mL in 50 mg/mL pH 5.8 ascorbic acid, T = 2.0 h): 0.24 area % | RT 5.0 min (110 mCi/mL in 50 mg/mL pH 5.8 ascorbic acid, T = 2.5 h): 0.34 area % | RT 5.0 min (110 mCi/mL in 50 mg/mL pH 5.8 ascorbic acid, T = 3.0 h): 0.35 area % | RT 5.0 min (110 mCi/mL in 50 mg/mL pH 5.8 ascorbic acid, T = 3.5 h): 0.31 area % | RT 5.0 min (110 mCi/mL in 50 mg/mL pH 5.8 ascorbic acid, T = 4.0 h): 0.31 area % | RT 5.0 min [12]: 0.50 area % | RT 5.9 min [12]: 0.64 area % | RT 5.0 min [13]: 0.65 area % | RT 5.9 min [13]: 0.97 area % | RT 5.0 min [14]: 0.48 area % | RT 5.9 min [14]: 1.11 area % | RT 5.0 min [15]: 0.61 area % | RT 5.9 min [15]: 1.03 area % | RT 5.0 min [16]: 0.77 area % | RT 5.9 min [16]: 1.05 area % | RT 5.0 min [17]: 0.62 area % | RT 5.9 min [17]: 0.93 area % | RT 5.0 min [18]: 0.70 area % | RT 5.9 min [18]: 0.87 area % | RT 5.0 min [19]: 0.59 area % | RT 5.9 min [19]: 0.95 area % | RT 5.0 min [20]: 0.71 area % | RT 5.9 min [20]: 0.96 area % | RT 5.0 min [21]: 0.35 area % | RT 12.0 min [21]: 0.35 area % | RT 12.2 min [21]: 0.31 area % | RT 5.0 min [22]: 0.28 area % | RT 12.0 min [22]: 0.46 area % | RT 12.2 min [22]: 0.37 area % | RT 5.0 min [23]: 0.50 area % | RT 12.0 min [23]: 0.52 area % | RT 12.2 min [23]: 0.47 area % | RT 12.0 min [24]: 0.52 area % | RT 12.2 min [24]: 0.46 area % | RT 12.0 min [25]: 0.69 area % | RT 12.2 min [25]: 0.57 area % | RT 12.0 min [26]: 0.87 area % | RT 12.2 min [26]: 0.75 area % | RT 12.0 min [27]: 0.96 area % | RT 12.2 min [27]: 0.69 area %
